Results reported in patent publication US20170165286A1, “COMPOSITIONS AND METHODS FOR TREATING DIABETES AND LIVER DISEASES” (Cempra Pharmaceuticals, Inc., priority 2014, published 2017).
Entries after “also recorded” stand apart in the source; their conditions may differ.

Experiments:
Type in all cases: in vivo
[1] = tested on: STAM mice; test: STAM model: liver triglyceride content
Method: (§1) NASH-HCC (STAM™) Model. C57BL/6 (15-day-pregnant female) mice are obtained from Charles River Laboratories Japan (Kanagawa, Japan). Male pups are selected for the study. NASH is induced in male mice by a single subcutaneous injection of 200 μg streptozotocin (STZ, Sigma-Aldrich, USA) solution 2 days after birth, followed by feeding a HFD (57 kcal % fat, cat#: HFD32, CLEA Japan, Japan) beginning at 4 weeks of age. At 5 weeks of age, mice are divided into a control group and one or more treated group (generally 8 mice per group). Animals are sacrificed at 9 weeks of age, and biochemical, histological, and gene expression analyses are performed.
(§2) During weeks 5-9 (starting at day 35±2), test compound is administered (generally orally) at various doses diluted to 10 mL/kg and according to various dosing protocols to treatment groups (8 mice each) while a second group (8 mice) is administered vehicle only. Animals are sacrificed at 9 weeks.
Measurement of liver biochemistry—liver triglyceride content. Liver total lipid-extracts are obtained by Folch's method (Folch J. et al., J. Biol. Chem., 1957; 226:497). Liver samples are homogenized in chloroform-methanol (2:1, v/v) and incubated overnight at room temperature. After washing with chloroform-methanol-water (8:4:3, v/v/v), the extracts are evaporated to dryness, and dissolved in isopropanol. Liver triglyceride (TG) and cholesterol contents were measured by Triglyceride E-test and Cholesterol E-test (Wako Pure Chemical Industries, Japan), respectively. Extracts are diluted 2-fold in isopropanol when the triglyceride content exceeds the detection limit.
(§3) Illustrative dose response test groups. Group 1-Normal. Eight normal mice are fed with a normal diet ad libitum without any treatment until 9 weeks of age. Group 2-Vehicle. Eight NASH mice are orally administered vehicle (0.5% w/v methylcellulose+0.2% Tween®80) in a volume of 10 mL/kg twice daily from 5 to 9 week of age. Group 3-solithromycin 5 mg/kg. Eight NASH mice are orally administered vehicle supplemented with solithromycin at a dose of 5 mg/kg in the morning and the vehicle in the evening (5 mg/kg/day) from 5 to 9 weeks of age. Group 4-solithromycin 10 mg/kg. Eight NASH mice are orally administered vehicle supplemented with solithromycin at a dose of 10 mg/kg twice daily (20 mg/kg/day) from 5 to 9 weeks of age. Group 5-solithromycin 25 mg/kg. Eight NASH mice are orally administered vehicle supplemented with solithromycin at a dose of 25 mg/kg twice daily (50 mg/kg/day) from 5 to 9 weeks of age. Group 6-solithromycin 50 mg/kg. Eight NASH mice are orally administered vehicle supplemented with solithromycin at a dose of 50 mg/kg once daily (50 mg/kg/day) from 5 to 9 weeks of age.

[2] = tested on: STAM mice; test: STAM model: whole blood and plasma biochemistry; conditions: for Whole Blood Glucose Levels: non-fasting, 5-9 wks
Method: as §1, §2
Measurement of whole blood and plasma biochemistry. Non-fasting blood glucose was measured in whole blood using LIFE CHECK (EIDIA, Japan). For plasma biochemistry, blood was collected in polypropylene tubes with anticoagulant (Novo-Heparin, Mochida Pharmaceutical, Japan) and centrifuged at 1,000×g for 15 minutes at 4° C. The supernatant was collected and stored at −80° C. until use. Plasma ALT levels were measured by FUJI DRI-CHEM 7000 (Fujifilm, Japan). Plasma insulin, MIF and IL-22 were quantified by Ultra Sensitive Mouse Insulin ELISA Kit (Morinaga Institute of Biological science, Japan), Mouse Macrophage Migration Inhibitory Factor (MIF) ELISA (Kamiya Biomedical, USA), Quantikine ELISA Mouse/Rat IL-22 Immunoassay kit (R&D Systems, USA), respectively.
as §3

[3] = tested on: STAM mice; test: STAM model: serum biochemistry (HPLC)
Method: as §1, §2
Measurement of serum biochemistry. For serum biochemistry, blood is collected in polypropylene tubes without anticoagulant and incubated at room temperature for 30 minutes, at 4° C. for 1 hour, and then centrifuged at 1,000×g for 15 minutes at 4° C. The supernatant is collected and stored at −80° C. until use. Serum triglyceride, HDL-cholesterol, LDL-cholesterol, VLDL-cholesterol, and chylomicron ([…]) are quantified by HPLC at Skylight Biotech Inc. (Japan).
as §3

[4] = 5 mg/kg q.d., listed as SOLI, 5 mg/kg
[5] = 10 mg/kg b.i.d., listed as SOLI, 10 mg/kg
[6] = 25 mg/kg b.i.d., listed as SOLI, 25 mg/kg

SMILES: CC[C@H]1OC(=O)[C@@](C)(F)C(=O)[C@H](C)[C@@H](O[C@@H]2O[C@H](C)C[C@H](N(C)C)[C@H]2O)[C@](C)(OC)C[C@@H](C)C(=O)[C@H](C)[C@H]2N(CCCCn3cc(-c4cccc(N)c4)nn3)C(=O)O[C@]12C [solithromycin]
- Liver triglyceride ([1]; 5 mg/kg q.d.): 127.7 ± 62.3 mg/g liver
- Liver triglyceride ([1]; 10 mg/kg b.i.d.): 161.8 ± 44.5 mg/g liver
- Liver triglyceride ([1]; 25 mg/kg b.i.d.): 100.8 ± 35.3 mg/g liver
- Liver triglyceride content compared to vehicle group ([1]; any doses (Groups 3-6)): no statistically significant differences
- Plasma ALT ([2]; 5 mg/kg q.d.): 52 ± 78 U/L
- Plasma IL-22 ([2]; 5 mg/kg q.d.): 31.8 ± 1.6 pg/mL
- Plasma insulin ([2]; 5 mg/kg q.d.): 0.25 ± 0.10 ng/mL
- Plasma MIF ([2]; 5 mg/kg q.d., 5 mg/kg): no statistically significant differences
- Plasma MIF [2, 4]: 4665 ± 2131 pg/mL
- Plasma ALT ([2]; 10 mg/kg b.i.d.): 31 ± 19 U/L
- Plasma IL-22 ([2]; 10 mg/kg b.i.d.): 33.0 ± 5.0 pg/mL
- Plasma insulin ([2]; 10 mg/kg b.i.d.): 0.41 ± 0.35 ng/mL
- Plasma MIF ([2]; 10 mg/kg b.i.d., 10 mg/kg): no statistically significant differences
- Plasma MIF [2, 5]: 4852 ± 1720 pg/mL
- Plasma ALT ([2]; 25 mg/kg b.i.d.): 34 ± 14 U/L
- Plasma IL-22 ([2]; 25 mg/kg b.i.d.): 33.8 ± 7.2 pg/mL
- Plasma insulin ([2]; 25 mg/kg b.i.d.): 0.41 ± 0.22 ng/mL
- Plasma MIF ([2]; 25 mg/kg b.i.d., 25 mg/kg): significantly increased
- Plasma MIF [2, 6]: 11748 ± 7633 pg/mL
- Plasma IL-22 levels compared to vehicle group ([2]; any doses): no statistically significant differences
- Plasma insulin levels compared to vehicle group ([2]; any doses): no statistically significant differences; also recorded: not significantly affected
- Plasma ALT levels compared to vehicle group ([2]; any doses (Groups 3-6)): no significant differences
- Whole Blood Glucose Levels ([2]; 5 mg/kg q.d. oral, 5 mg/kg): no statistically significant differences
- Whole Blood Glucose Levels ([2]; 5 mg/kg q.d. oral, listed as SOLI, 5 mg/kg): 726 ± 101 mg/dL
- Whole Blood Glucose Levels ([2]; 5 mg/kg q.d. oral, listed as Solithromycin, 5 mg/kg): 726 ± 101 mg/dL
- Whole Blood Glucose Levels ([2]; 10 mg/kg b.i.d. oral, 10 mg/kg): no statistically significant differences
- Whole Blood Glucose Levels ([2]; 10 mg/kg b.i.d. oral, listed as SOLI, 10 mg/kg): 713 ± 172 mg/dL
- Whole Blood Glucose Levels ([2]; 10 mg/kg b.i.d. oral, listed as Solithromycin, 10 mg/kg): 713 ± 172 mg/dL
- Whole Blood Glucose Levels ([2]; 25 mg/kg b.i.d. oral, 25 mg/kg): Statistically significant blood glucose decrease
- Whole Blood Glucose Levels ([2]; 25 mg/kg b.i.d. oral, listed as SOLI, 25 mg/kg): 497 ± 259 mg/dL
- Whole Blood Glucose Levels ([2]; 25 mg/kg b.i.d. oral, listed as Solithromycin, 25 mg/kg): 497 ± 259 mg/dL
- Whole Blood Glucose Levels ([2]; 50 mg/kg q.d. oral, 50 mg/kg): Statistically significant blood glucose decrease
- Whole Blood Glucose Levels ([2]; 50 mg/kg q.d. oral, listed as Solithromycin, 50 mg/kg): 380 ± 170 mg/dL
- Serum HDL-cholesterol ([3]; 5 mg/kg q.d., 5 mg/kg): no statistically significant differences
- Serum VLDL-cholesterol ([3]; 5 mg/kg q.d., 5 mg/kg): no statistically significant differences
- Serum chylomicron ([3]; 5 mg/kg q.d., 5 mg/kg): no statistically significant differences
- Serum triglyceride ([3]; 5 mg/kg q.d., 5 mg/kg): no statistically significant differences
- Serum HDL-cholesterol [3, 4]: 88.4 ± 14.2 mg/dL
- Serum VLDL-cholesterol [3, 4]: 9.8 ± 5.3 mg/dL
- Serum chylomicron [3, 4]: 1.5 ± 1.2 mg/dL
- Serum triglyceride [3, 4]: 133.8 ± 110.1 mg/dL
- Serum HDL-cholesterol ([3]; 10 mg/kg b.i.d., 10 mg/kg): no statistically significant differences
- Serum VLDL-cholesterol ([3]; 10 mg/kg b.i.d., 10 mg/kg): no statistically significant differences
- Serum chylomicron ([3]; 10 mg/kg b.i.d., 10 mg/kg): no statistically significant differences
- Serum triglyceride ([3]; 10 mg/kg b.i.d., 10 mg/kg): no statistically significant differences
- Serum HDL-cholesterol [3, 5]: 89.3 ± 21.5 mg/dL
- Serum VLDL-cholesterol [3, 5]: 9.7 ± 3.8 mg/dL
- Serum chylomicron [3, 5]: 1.4 ± 0.6 mg/dL
- Serum triglyceride [3, 5]: 116.5 ± 58.8 mg/dL
- Serum HDL-cholesterol ([3]; 25 mg/kg b.i.d., 25 mg/kg): no statistically significant differences
- Serum VLDL-cholesterol ([3]; 25 mg/kg b.i.d., 25 mg/kg): significantly decreased; also recorded: Statistically significant reduced
- Serum chylomicron ([3]; 25 mg/kg b.i.d., 25 mg/kg): significantly decreased
- Serum triglyceride ([3]; 25 mg/kg b.i.d., 25 mg/kg): significantly decreased; also recorded: Statistically significant reduced
- Serum HDL-cholesterol [3, 6]: 97.9 ± 26.3 mg/dL
- Serum VLDL-cholesterol [3, 6]: 5.4 ± 3.2 mg/dL
- Serum chylomicron [3, 6]: 0.7 ± 0.4 mg/dL
- Serum triglyceride [3, 6]: 46.8 ± 47.8 mg/dL
